This experiment concerns the target GST-Bcl-2 (Homo sapiens (Human), UniProt P10415). The experiment is described as follows: Time Resolved-Fluorescence Resonance Energy Transfer (TR-FRET) Bcl-2 binding assay. Particulars: GST-Bcl-2 1 nM, F-Bak peptide probe 100 nM, Tb-anti-GST antibody 1 nM; Ki by Wang's equation. The gist of the method:
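Ki values derived from TR-FRET displacement of F-Bak peptide from GST-Bcl-2, detected with Tb-labelled anti-GST antibody (ex 340, em 520/495 nm). Compound dilution series started at 50 μM (2× starting concentration); room-temperature incubation 3 hours.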
(In TR-FRET formats the signal depends on donor and acceptor labels being close together.)
Chain of GST-Bcl-2 (P10415 whole entry): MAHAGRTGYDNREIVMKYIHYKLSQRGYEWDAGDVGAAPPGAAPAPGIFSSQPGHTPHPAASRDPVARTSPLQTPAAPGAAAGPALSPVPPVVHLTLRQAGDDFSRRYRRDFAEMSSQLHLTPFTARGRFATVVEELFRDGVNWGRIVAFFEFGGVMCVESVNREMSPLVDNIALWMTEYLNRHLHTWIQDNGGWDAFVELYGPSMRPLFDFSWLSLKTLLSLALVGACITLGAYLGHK
For orientation: Ki means a measure of affinity in units of concentration, obtained from inhibition or displacement. `CC1(C)CCC(CN2CCN(c3ccc(C(=O)NS(=O)(=O)c4ccc(OCC5(F)CCN(C6CC6)CC5)c([N+](=O)[O-])c4)c(Oc4cc5cc[nH]c5cc4F)c3)CC2)=C(c2ccc(Cl)cc2)C1` [Example 341, 4-(4-{[2-(4-chlorophenyl)-4,4-dimethylcyclohex-1-en-1-yl]methyl}piperazin-1-yl)-N-({4-[(1-cyclopropyl-4-fluoropiperidin-4-yl)methoxy]-3-nitrophenyl}sulfonyl)-2-[(6-fluoro-1H-indol-5-yl)oxy]benzamide] showed an inhibition constant Ki of 0.017 nM.
Under `COc1ccc(Cn2nnc3c(Oc4cc(N5CCN(CC6=C(c7ccc(Cl)cc7)CC(C)(C)CC6)CC5)ccc4C(=O)NS(=O)(=O)c4ccc(NCC5CCOCC5)c([N+](=O)[O-])c4)cccc32)cc1` [Example 342, 4-(4-{[2-(4-chlorophenyl)-4,4-dimethylcyclohex-1-en-1-yl]methyl}piperazin-1-yl)-2-{[1-(4-methoxybenzyl)-1H-1,2,3-benzotriazol-4-yl]oxy}-N-({3-nitro-4-[(tetrahydro-2H-pyran-4-ylmethyl)amino]phenyl}sulfonyl)benzamide] stands 3.34 nM; under `CN1CCN(Nc2ccc(S(=O)(=O)NC(=O)c3ccc(N4CCN(CC5=C(c6ccc(Cl)cc6)CC(C)(C)CC5)CC4)cc3Oc3cnc(N)c(Cl)c3)cc2[N+](=O)[O-])CC1` [Example 343, 2-[(6-amino-5-chloropyridin-3-yl)oxy]-4-(4-{[2-(4-chlorophenyl)-4,4-dimethylcyclohex-1-en-1-yl]methyl}piperazin-1-yl)-N-({4-[(4-methylpiperazin-1-yl)amino]-3-nitrophenyl}sulfonyl)benzamide], 0.009 nM.
In the case of `CC1(C)CCC(CN2CCN(c3ccc(C(=O)NS(=O)(=O)c4ccc(NCC5COCCO5)c([N+](=O)[O-])c4)c(Oc4cnc(N)c(Cl)c4)c3)CC2)=C(c2ccc(Cl)cc2)C1` (stereo not drawn) [Example 346, 2-[(6-amino-5-chloropyridin-3-yl)oxy]-4-(4-{[2-(4-chlorophenyl)-4,4-dimethylcyclohex-1-en-1-yl]methyl}piperazin-1-yl)-N-({4-[(1,4-dioxan-2-ylmethyl)amino]-3-nitrophenyl}sulfonyl)benzamide], the Ki is less than 0.01 nM.
To `CC1(C)CCC(CN2CCN(c3ccc(C(=O)NS(=O)(=O)c4ccc(NCCCN5CCOCC5)c(S(=O)(=O)C(F)(F)F)c4)c(Oc4cnc(N)c(Cl)c4)c3)CC2)=C(c2ccc(Cl)cc2)C1` [Example 347, 2-[(6-amino-5-chloropyridin-3-yl)oxy]-4-(4-{[2-(4-chlorophenyl)-4,4-dimethylcyclohex-1-en-1-yl]methyl}piperazin-1-yl)-N-({4-[(3-morpholin-4-ylpropyl)amino]-3-[(trifluoromethyl)sulfonyl]phenyl}sulfonyl)benzamide] belongs 0.377 nM.
With `CC1(C)CCC(CN2CCN(c3ccc(C(=O)NS(=O)(=O)c4ccc(OCC5(F)CCOCC5)c(S(=O)(=O)C(F)(F)F)c4)c(Oc4cnc(N)c(Cl)c4)c3)CC2)=C(c2ccc(Cl)cc2)C1` [Example 348, 2-[(6-amino-5-chloropyridin-3-yl)oxy]-4-(4-{[2-(4-chlorophenyl)-4,4-dimethylcyclohex-1-en-1-yl]methyl}piperazin-1-yl)-N-({4-[(4-fluorotetrahydro-2H-pyran-4-yl)methoxy]-3-[(trifluoromethyl)sulfonyl]phenyl}sulfonyl)benzamide], the Ki turned out to be 3.78 nM.
Under `CC1(C)CCC(CN2CCN(c3ccc(C(=O)NS(=O)(=O)c4cnc(OCC5(F)CCOCC5)c(Cl)c4)c(Oc4cnc(N)c(Cl)c4)c3)CC2)=C(c2ccc(Cl)cc2)C1` [Example 349, 2-[(6-amino-5-chloropyridin-3-yl)oxy]-N-({5-chloro-6-[(4-fluorotetrahydro-2H-pyran-4-yl)methoxy]pyridin-3-yl}sulfonyl)-4-(4-{[2-(4-chlorophenyl)-4,4-dimethylcyclohex-1-en-1-yl]methyl}piperazin-1-yl)benzamide] stands 0.019 nM; under `CC1(C)CCC(CN2CCN(c3ccc(C(=O)NS(=O)(=O)c4ccc(NCC5CCOCC5)c([N+](=O)[O-])c4)c(Oc4cnc(N)c(Br)c4)c3)CC2)=C(c2ccc(Cl)cc2)C1` [Example 350, 2-[(6-amino-5-bromopyridin-3-yl)oxy]-4-(4-{[2-(4-chlorophenyl)-4,4-dimethylcyclohex-1-en-1-yl]methyl}piperazin-1-yl)-N-({3-nitro-4-[(tetrahydro-2H-pyran-4-ylmethyl)amino]phenyl}sulfonyl)benzamide], less than 0.01 nM; under `CC1(C)CCC(CN2CCN(c3ccc(C(=O)NS(=O)(=O)c4ccc(NCC5CCOCC5)c([N+](=O)[O-])c4)c(Oc4cnc(N)c(C(N)=O)c4)c3)CC2)=C(c2ccc(Cl)cc2)C1` [Example 351, 2-amino-5-(5-(4-{[2-(4-chlorophenyl)-4,4-dimethylcyclohex-1-en-1-yl]methyl}piperazin-1-yl)-2-{[({3-nitro-4-[(tetrahydro-2H-pyran-4-ylmethyl)amino]phenyl}sulfonyl)amino]carbonyl}phenoxy)nicotinamide], 2.84 nM.
To `CC1(C)CCC(CN2CCN(c3ccc(C(=O)NS(=O)(=O)c4ccc(NCC5CCOCC5)c([N+](=O)[O-])c4)c(Oc4cnc(N)c(C#N)c4)c3)CC2)=C(c2ccc(Cl)cc2)C1` [Example 352, 2-[(6-amino-5-cyanopyridin-3-yl)oxy]-4-(4-{[2-(4-chlorophenyl)-4,4-dimethylcyclohex-1-en-1-yl]methyl}piperazin-1-yl)-N-({3-nitro-4-[(tetrahydro-2H-pyran-4-ylmethyl)amino]phenyl}sulfonyl)benzamide] belongs 0.079 nM.
To `CC1(C)CCC(CN2CCN(c3ccc(C(=O)NS(=O)(=O)c4ccc(N[C@@H]5CCN(CC(F)F)C5)c([N+](=O)[O-])c4)c(Oc4cnc(N)c(Cl)c4)c3)CC2)=C(c2ccc(Cl)cc2)C1` [Example 353, 2-[(6-amino-5-chloropyridin-3-yl)oxy]-4-(4-{[2-(4-chlorophenyl)-4,4-dimethylcyclohex-1-en-1-yl]methyl}piperazin-1-yl)-N-[(4-{[(3R)-1-(2,2-difluoroethyl)pyrrolidin-3-yl]amino}-3-nitrophenyl)sulfonyl]benzamide] belongs 0.016 nM.
In turn, `CN1CCC(Nc2ccc(S(=O)(=O)NC(=O)c3ccc(N4CCN(CC5=C(c6ccc(Cl)cc6)CC(C)(C)CC5)CC4)cc3Oc3cnc(N)c(Cl)c3)cc2S(=O)(=O)C(F)(F)F)CC1` [Example 354, 2-[(6-amino-5-chloropyridin-3-yl)oxy]-4-(4-{[2-(4-chlorophenyl)-4,4-dimethylcyclohex-1-en-1-yl]methyl}piperazin-1-yl)-N-({4-[(1-methylpiperidin-4-yl)amino]-3-[(trifluoromethyl)sulfonyl]phenyl}sulfonyl)benzamide] gave a Ki of 0.114 nM.
Under `CC(=O)Nc1ccc(Oc2cc(N3CCN(CC4=C(c5ccc(Cl)cc5)CC(C)(C)CC4)CC3)ccc2C(=O)NS(=O)(=O)c2ccc(NCC3CCOCC3)c([N+](=O)[O-])c2)cn1` [Example 355, 2-{[6-(acetylamino)pyridin-3-yl]oxy}-4-(4-{[2-(4-chlorophenyl)-4,4-dimethylcyclohex-1-en-1-yl]methyl}piperazin-1-yl)-N-({3-nitro-4-[(tetrahydro-2H-pyran-4-ylmethyl)amino]phenyl}sulfonyl)benzamide] stands 9.57 nM.
Under `CC1(C)CCC(CN2CCN(c3ccc(C(=O)NS(=O)(=O)c4ccc(NCC5CCOCC5)c([N+](=O)[O-])c4)c(Oc4ccc(NS(C)(=O)=O)nc4)c3)CC2)=C(c2ccc(Cl)cc2)C1` [Example 356, 4-(4-{[2-(4-chlorophenyl)-4,4-dimethylcyclohex-1-en-1-yl]methyl}piperazin-1-yl)-2-({6-[(methylsulfonyl)amino]pyridin-3-yl}oxy)-N-({3-nitro-4-[(tetrahydro-2H-pyran-4-ylmethyl)amino]phenyl}sulfonyl)benzamide] stands 2.82 nM; under `CC1(C)CCC(CN2CCN(c3ccc(C(=O)NS(=O)(=O)c4ccc(N[C@@H]5CCN(C(CF)CF)C5)c([N+](=O)[O-])c4)c(Oc4cc5cc[nH]c5cc4F)c3)CC2)=C(c2ccc(Cl)cc2)C1` [Example 357, 4-(4-{[2-(4-chlorophenyl)-4,4-dimethylcyclohex-1-en-1-yl]methyl}piperazin-1-yl)-N-{[4-({(3R)-1-[2-fluoro-1-(fluoromethyl)ethyl]pyrrolidin-3-yl}amino)-3-nitrophenyl]sulfonyl}-2-[(6-fluoro-1H-indol-5-yl)oxy]benzamide], 0.177 nM; under `CC1(C)CCC(CN2CCN(c3ccc(C(=O)NS(=O)(=O)c4ccc(NC5CCN(C6CC6)CC5)c([N+](=O)[O-])c4)c(Oc4cnc(N)c(Cl)c4)c3)CC2)=C(c2ccc(Cl)cc2)C1` [Example 358, 2-[(6-amino-5-chloropyridin-3-yl)oxy]-4-(4-{[2-(4-chlorophenyl)-4,4-dimethylcyclohex-1-en-1-yl]methyl}piperazin-1-yl)-N-({4-[(1-cyclopropylpiperidin-4-yl)amino]-3-nitrophenyl}sulfonyl)benzamide], 0.062 nM.
Under `CN1CCN(Nc2ccc(S(=O)(=O)NC(=O)c3ccc(N4CCN(CC5=C(c6ccc(Cl)cc6)CC(C)(C)CC5)CC4)cc3Oc3cnc(N)c(Br)c3)cc2[N+](=O)[O-])CC1` [Example 359, 2-[(6-amino-5-bromopyridin-3-yl)oxy]-4-(4-{[2-(4-chlorophenyl)-4,4-dimethylcyclohex-1-en-1-yl]methyl}piperazin-1-yl)-N-({4-[(4-methylpiperazin-1-yl)amino]-3-nitrophenyl}sulfonyl)benzamide] stands 0.11 nM.
In turn, `CC1(C)CCC(CN2CCN(c3ccc(C(=O)NS(=O)(=O)c4ccc(OCC5(F)CCOCC5)c([N+](=O)[O-])c4)c(Oc4cnc(N)c(Br)c4)c3)CC2)=C(c2ccc(Cl)cc2)C1` [Example 360, 2-[(6-amino-5-bromopyridin-3-yl)oxy]-4-(4-{[2-(4-chlorophenyl)-4,4-dimethylcyclohex-1-en-1-yl]methyl}piperazin-1-yl)-N-({4-[(4-fluorotetrahydro-2H-pyran-4-yl)methoxy]-3-nitrophenyl}sulfonyl)benzamide] came in with a Ki of 0.05 nM.

The values above are taken from patent US8952157B2, “Apoptosis-inducing agents for the treatment of cancer and immune and autoimmune diseases” (AbbVie Inc., priority 2008, dated 2015).
